Assay in all cases: relative viability (nuclei count vs DMSO), 5 days (fraction); higher = more cells survive
Compound in the test “Zebularine + Lapatinib”: O=c1ncccn1[C@@H]1O[C@H](CO)[C@@H](O)[C@H]1O [Zebularine] + CS(=O)(=O)CCNCc1ccc(-c2ccc3ncnc(Nc4ccc(OCc5cccc(F)c5)c(Cl)c4)c3c2)o1 [Lapatinib] (partner 2 µM)
A digest of the protocol: (§1)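 After 5 days of treatment, lung cancer cells in 1536-well plates were fixed and stained in a single step (final 0.05% Triton X-100, 1% formaldehyde, 1 ug/ml Hoechst) and their nuclei counted on 4× images. Treatment had been applied by pin tool the day after seeding as one drug alone or as a fixed anchor-drug dose with five library-drug doses (not always all listed) in √10 steps. Relative viability is the nuclei count of treated wells divided by that of vehicle wells, and values are medians of duplicate plates.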

Compound in the test “BI-D1870 + Linsitinib”: CC(C)CCN1c2nc(Nc3cc(F)c(O)c(F)c3)ncc2N(C)C(=O)C1C [BI-D1870] + C[C@]1(O)C[C@@H](c2nc(-c3ccc4ccc(-c5ccccc5)nc4c3)c3c(N)nccn32)C1 [Linsitinib] (partner 1 µM)
A digest of the protocol:
as §1

Compound in the test “BI-D1870 + Pemetrexed”: CC(C)CCN1c2nc(Nc3cc(F)c(O)c(F)c3)ncc2N(C)C(=O)C1C [BI-D1870] + Nc1nc2[nH]cc(CCc3ccc(C(=O)N[C@@H](CCC(=O)O)C(=O)O)cc3)c2c(=O)[nH]1 [Pemetrexed] (partner 0.2 µM)
A digest of the protocol: as §1

Compound in the test “BI-D1870 + Dasatinib”: CC(C)CCN1c2nc(Nc3cc(F)c(O)c(F)c3)ncc2N(C)C(=O)C1C [BI-D1870] + Cc1nc(Nc2ncc(C(=O)Nc3c(C)cccc3Cl)s2)cc(N2CCN(CCO)CC2)n1 [Dasatinib] (partner 0.075 µM)
A digest of the protocol:
as §1

As for NCI-H520, the relative viability was determined as 1.14 in the test with Zebularine + Lapatinib (first compound 1 µM); 0.863 with Zebularine + Lapatinib (first compound 3.162 µM); 0.477 with Zebularine + Lapatinib (first compound 10 µM); 0.277 in the test with Zebularine + Lapatinib (first compound 31.62 µM); 0.256 with Zebularine + Lapatinib (first compound 100 µM); 1 with BI-D1870 + Linsitinib (first compound 0.04 µM). The relative viability with BI-D1870 + Linsitinib (first compound 0.1265 µM) came out at 0.846; in the test with BI-D1870 + Linsitinib (first compound 0.4 µM), 0.985; with BI-D1870 + Linsitinib (first compound 1.265 µM) it was 0.803; with BI-D1870 + Linsitinib (first compound 4 µM), 0.678; in the test with BI-D1870 + Pemetrexed (first compound 0.04 µM) it was 0.757; with BI-D1870 + Pemetrexed (first compound 0.1265 µM) it was 0.673. Besides, the relative viability amounted to 0.636 with BI-D1870 + Pemetrexed (first compound 0.4 µM); 0.416 in the test with BI-D1870 + Pemetrexed (first compound 1.265 µM); 0.267 with BI-D1870 + Pemetrexed (first compound 4 µM); 0.207 with BI-D1870 + Dasatinib (first compound 0.04 µM); 0.189 with BI-D1870 + Dasatinib (first compound 0.1265 µM); 0.235 with BI-D1870 + Dasatinib (first compound 0.4 µM). Moreover, the relative viability came out at 0.198 in the test with BI-D1870 + Dasatinib (first compound 1.265 µM) and 0.186 in the test with BI-D1870 + Dasatinib (first compound 4 µM).

Consider RERF-LC-KJ, for which the relative viability with Zebularine + Lapatinib (first compound 1 µM) came out at 0.901; in the test with Zebularine + Lapatinib (first compound 3.162 µM) it was 0.946; in the test with Zebularine + Lapatinib (first compound 31.62 µM), 0.92; in the test with Zebularine + Lapatinib (first compound 100 µM), 0.863; with BI-D1870 + Linsitinib (first compound 0.04 µM), 0.919; in the test with BI-D1870 + Linsitinib (first compound 0.1265 µM), 0.882. The relative viability with BI-D1870 + Linsitinib (first compound 0.4 µM) came to 0.842; with BI-D1870 + Linsitinib (first compound 1.265 µM), 0.814; with BI-D1870 + Linsitinib (first compound 4 µM), 0.812; in the test with BI-D1870 + Pemetrexed (first compound 0.04 µM), 0.453; in the test with BI-D1870 + Pemetrexed (first compound 0.1265 µM), 0.447; with BI-D1870 + Pemetrexed (first compound 0.4 µM), 0.476. Moreover, the relative viability with BI-D1870 + Pemetrexed (first compound 1.265 µM) came out at 0.527; with BI-D1870 + Pemetrexed (first compound 4 µM) it was 0.413; with BI-D1870 + Dasatinib (first compound 0.04 µM), 0.968; with BI-D1870 + Dasatinib (first compound 0.1265 µM), 0.72; in the test with BI-D1870 + Dasatinib (first compound 0.4 µM) it was 0.762; in the test with BI-D1870 + Dasatinib (first compound 1.265 µM) it was 0.814. For the same cell line, in the test with BI-D1870 + Dasatinib (first compound 4 µM), the relative viability turned out to be 0.495.

As for A-427, the relative viability with Zebularine + Lapatinib (first compound 1 µM) is 1.13; with Zebularine + Lapatinib (first compound 3.162 µM), 1.01; in the test with Zebularine + Lapatinib (first compound 10 µM), 0.691; with Zebularine + Lapatinib (first compound 31.62 µM) it was 0.58; in the test with Zebularine + Lapatinib (first compound 100 µM), 0.256; with BI-D1870 + Linsitinib (first compound 0.04 µM), 1.14. The relative viability with BI-D1870 + Linsitinib (first compound 0.1265 µM) was determined as 1.1; in the test with BI-D1870 + Linsitinib (first compound 0.4 µM) it was 1.13; with BI-D1870 + Linsitinib (first compound 1.265 µM), 1.17; with BI-D1870 + Linsitinib (first compound 4 µM), 1.17; with BI-D1870 + Pemetrexed (first compound 0.04 µM), 1.02; in the test with BI-D1870 + Pemetrexed (first compound 0.1265 µM), 0.982. The relative viability with BI-D1870 + Pemetrexed (first compound 0.4 µM) turned out to be 0.994; in the test with BI-D1870 + Pemetrexed (first compound 1.265 µM) it was 0.963; with BI-D1870 + Pemetrexed (first compound 4 µM) it was 0.784; with BI-D1870 + Dasatinib (first compound 0.04 µM), 0.775; with BI-D1870 + Dasatinib (first compound 0.1265 µM) it was 0.593; with BI-D1870 + Dasatinib (first compound 0.4 µM), 0.706. Further, the relative viability turned out to be 0.756 with BI-D1870 + Dasatinib (first compound 1.265 µM) and 0.793 with BI-D1870 + Dasatinib (first compound 4 µM).

As to NCI-H441, the relative viability is 0.871 with BI-D1870 + Linsitinib (first compound 0.04 µM); 0.429 in the test with BI-D1870 + Linsitinib (first compound 0.1265 µM); 0.481 with BI-D1870 + Linsitinib (first compound 0.4 µM); 0.493 in the test with BI-D1870 + Linsitinib (first compound 1.265 µM); 0.518 with BI-D1870 + Linsitinib (first compound 4 µM); 0.262 with BI-D1870 + Pemetrexed (first compound 0.04 µM). Also, the relative viability is 0.279 with BI-D1870 + Pemetrexed (first compound 0.1265 µM); 0.245 in the test with BI-D1870 + Pemetrexed (first compound 0.4 µM); 0.237 with BI-D1870 + Pemetrexed (first compound 1.265 µM); 0.265 with BI-D1870 + Pemetrexed (first compound 4 µM); 0.763 in the test with BI-D1870 + Dasatinib (first compound 0.04 µM); 0.544 with BI-D1870 + Dasatinib (first compound 0.1265 µM). For the same cell line, the relative viability turned out to be 0.575 with BI-D1870 + Dasatinib (first compound 0.4 µM), 0.651 with BI-D1870 + Dasatinib (first compound 1.265 µM) and 0.671 with BI-D1870 + Dasatinib (first compound 4 µM).

Turning to NCI-H1703, the relative viability was 0.994 with Zebularine + Lapatinib (first compound 1 µM); 0.979 in the test with Zebularine + Lapatinib (first compound 3.162 µM); 1.52 with Zebularine + Lapatinib (first compound 31.62 µM); 0.952 with Zebularine + Lapatinib (first compound 100 µM); 0.405 with BI-D1870 + Linsitinib (first compound 0.1265 µM); 0.635 in the test with BI-D1870 + Linsitinib (first compound 0.4 µM). The relative viability was 0.772 with BI-D1870 + Linsitinib (first compound 1.265 µM) and 0.728 with BI-D1870 + Linsitinib (first compound 4 µM).

For NCI-H1792, the relative viability with Zebularine + Lapatinib (first compound 1 µM) is 0.978; with Zebularine + Lapatinib (first compound 3.162 µM) it was 0.879; with Zebularine + Lapatinib (first compound 10 µM), 0.416; in the test with Zebularine + Lapatinib (first compound 31.62 µM), 0.428; with Zebularine + Lapatinib (first compound 100 µM) it was 0.284; in the test with BI-D1870 + Linsitinib (first compound 0.04 µM) it was 0.622. Moreover, the relative viability with BI-D1870 + Linsitinib (first compound 0.1265 µM) was determined as 0.607; in the test with BI-D1870 + Linsitinib (first compound 0.4 µM), 0.47; with BI-D1870 + Linsitinib (first compound 1.265 µM) it was 0.619; with BI-D1870 + Linsitinib (first compound 4 µM), 0.387; with BI-D1870 + Pemetrexed (first compound 0.04 µM) it was 1.12; in the test with BI-D1870 + Pemetrexed (first compound 0.1265 µM), 0.795. Further, the relative viability with BI-D1870 + Pemetrexed (first compound 0.4 µM) was 0.706; with BI-D1870 + Pemetrexed (first compound 1.265 µM), 1.11; with BI-D1870 + Pemetrexed (first compound 4 µM), 0.634; with BI-D1870 + Dasatinib (first compound 0.04 µM), 0.841; with BI-D1870 + Dasatinib (first compound 0.1265 µM), 0.68; with BI-D1870 + Dasatinib (first compound 0.4 µM), 0.599. Besides, the relative viability with BI-D1870 + Dasatinib (first compound 1.265 µM) came to 0.829; with BI-D1870 + Dasatinib (first compound 4 µM), 0.645.

With Calu-6, the relative viability amounted to 1.17 with Zebularine + Lapatinib (first compound 1 µM); 0.99 with Zebularine + Lapatinib (first compound 3.162 µM); 0.604 with Zebularine + Lapatinib (first compound 10 µM); 0.813 with Zebularine + Lapatinib (first compound 31.62 µM); 0.347 in the test with Zebularine + Lapatinib (first compound 100 µM); 1.04 with BI-D1870 + Linsitinib (first compound 0.04 µM). Besides, the relative viability with BI-D1870 + Linsitinib (first compound 0.1265 µM) stood at 0.896; with BI-D1870 + Linsitinib (first compound 0.4 µM) it was 0.889; in the test with BI-D1870 + Linsitinib (first compound 1.265 µM), 0.884; with BI-D1870 + Linsitinib (first compound 4 µM), 0.744.

With SK-LU-1, the relative viability worked out at 0.896 with Zebularine + Lapatinib (first compound 1 µM); 0.9 in the test with Zebularine + Lapatinib (first compound 3.162 µM); 0.545 with Zebularine + Lapatinib (first compound 10 µM); 0.676 with Zebularine + Lapatinib (first compound 31.62 µM); 0.448 in the test with Zebularine + Lapatinib (first compound 100 µM); 1.33 with BI-D1870 + Linsitinib (first compound 0.04 µM). Also, the relative viability in the test with BI-D1870 + Linsitinib (first compound 0.1265 µM) came out at 0.993; with BI-D1870 + Linsitinib (first compound 0.4 µM) it was 1.09; with BI-D1870 + Linsitinib (first compound 1.265 µM) it was 1.05; with BI-D1870 + Linsitinib (first compound 4 µM), 0.597; in the test with BI-D1870 + Pemetrexed (first compound 0.04 µM), 1.1; with BI-D1870 + Pemetrexed (first compound 0.1265 µM) it was 0.918. Further, the relative viability came out at 1.01 with BI-D1870 + Pemetrexed (first compound 0.4 µM); 0.868 with BI-D1870 + Pemetrexed (first compound 1.265 µM); 0.366 with BI-D1870 + Pemetrexed (first compound 4 µM); 0.18 with BI-D1870 + Dasatinib (first compound 0.04 µM); 0.165 with BI-D1870 + Dasatinib (first compound 0.1265 µM); 0.132 in the test with BI-D1870 + Dasatinib (first compound 0.4 µM). The relative viability is 0.229 in the test with BI-D1870 + Dasatinib (first compound 1.265 µM) and 0.153 with BI-D1870 + Dasatinib (first compound 4 µM).

The record behind these values is the supplement of paper PMC10307832.
